Reference: US7662222B2, “Method and use of nanoparticles to bind biocides in paints” (I-Tech AB, priority 2005, dated 2010)
“Also recorded” adds a separate entry of the source.

How the values were obtained:
[1] = adsorption of biocides onto CuO and ZnO nanoparticles in o-xylene, non-adsorbed biocide by HPLC-UV; type: physicochemical; conditions: biocide 50 mM
Description: To 50 ml of the solvent o-xylene, the biocide was added at a total concentration of 50 mM. Nano-particles (Sigma-Aldrich Sweden AB, Stockholm, Sweden) were then added in relevant concentrations according to the test protocol and after each addition the concentration of non-adsorbed Medetomidine (Orion Pharma, Helsinki, Finland) was measured with a standard HPLC-UV technique. The UV-absorbance maximum of Medetomidine was, from the literature, found to be 220 nm. Prior to the HPLC analysis the UV-absorbance maximum was investigated in order to verify the value given from the literature using a UV-spectrometer (GBC 920 UV/visible spectrometer, Scientific Equipments Ltd., Victoria, Australia).
The samples were analysed on a HPLC-UV system consisting of a Merck-Hitachi L-6200 pump (Merck-Hitachi, Darmstadt, Germany), a Supelco Discovery® (Sigma-Aldrich Sweden AB, Stockholm, Sweden) C18 (25 cm×4.6 mm, 5 m) column fitted with a prefilter (0.5 μm) and a Spectra-Physics Spectra 100 UV (Spectra-Physics Inc, Irvine Calif., USA) operating at 220 nm. The mobile phase was MilliQ-water:Acetonitrile (0.1% TFA v/v (mobile phase A): 0.1% TFA v/v (mobile phase B)) run over a gradient (6% B for two min then an increase up to 60% B in 15 min, a further increase up to 100% B in 3 min and then isocratic for 3 min before returning to the starting values in 2 min) at a flow rate of […]. The peak separation was monitored by UV (220 nm). Manual injections of 100 micro-liter were made and the data was collected and integrated using the Millenium software (version 3.20, 1999)(Waters Inc, Milford Mass., USA).

[2] = tested on: barnacles; conditions: reported pharmacological compounds; cited from earlier work
[3] = CuO (5 μm) instead of nanoparticle, o-xylene
Description: The different nanoparticles used (ZnO, CuO, Al2O3, MgO, TiO2, CO3O4) were bought from Sigma (Sigma-Aldrich Sweden AB, Stockholm, Sweden) and used without further purification. 50 ml of o-xylene was added to a beaker to which 50 mM of Medetomidine (Orion Pharma, Helsinki, Finland) was added. Nanoparticles were then added and after each addition the amount of free Medetomidine was measured with HPLC-UV (as in example 1 above).

Medetomidine adsorption onto micrometer sized particle [3]	SMILES	adsorption of antifouling agent onto nanoparticles [1]	effect on attachment / settlement of barnacles [2]
negligible	Cc1cccc(C(C)c2cnc[nH]2)c1C (racemic) [Medetomidine, (S,R)-4(5)-[1-(2,3-dimethylphenyl)ethyl]-1H-imidazole]	Large fractions of Medetomidine are adsorbed already at low particle concentrations; also recorded: best adsorption	efficient inhibitor
–	CC(C)C[C@H]1C(=O)N2CCC[C@H]2[C@]2(O)O[C@](NC(=O)[C@@H]3C=C4c5cccc6[nH]c(Br)c(c56)C[C@H]4N(C)C3)(C(C)C)C(=O)N12 [(+)-Bromocriptine]	–	inhibitory properties
–	O=C(c1ccc(F)cc1)C1CCN(CCn2c(=O)[nH]c3ccccc3c2=O)CC1 [Ketanserin]	–	inhibitory properties
–	CCCN1CCc2cccc3c2[C@H]1Cc1ccc(O)c(O)c1-3 [R (−)-NPA]	–	inhibitory properties
–	CCCCCCCCn1sc(Cl)c(Cl)c1=O [SeaNine, 4,5-dichloro-2-n-octyl-3(2H)-isothiazolone]	exhibited adsorption	–
–	CN(C)C(=O)Nc1ccc(Cl)c(Cl)c1 [diuron, 3-(3,4-dichlorophenyl)-1,1-dimethylurea]	exhibited adsorption	–
–	CSc1nc(NC2CC2)nc(NC(C)(C)C)n1 [igarol, 2-methylthio-4-tert-butylamino-6-cyclopropylamino-s-triziane]	exhibited adsorption	–
